System: NCI-H1417 complex spheroids, growth % test/control
Assay: Anticancer human tumor NCI-H1417 cell line growth inhibition [Asc];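 note: spheroids exposed to compounds for 7 days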;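 for viability, T/C: 100% = DMSO vehicle control wells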
Details: for IC50: curve of first compound; for viability, T/C: stronger effect = lower value
Experimental: Multicellular complex tumor spheroid response to apoptosis pathway targeting inhibitors Alrizomadlin, Pelcitoclax, and Dasminapant in combination with a variety of drugs and investigational agents in selected tumor cell lines
The MDM2 inhibitor alrizomadlin, the Bcl-2/Bcl-xL inhibitor pelcitoclax, and the IAPs inhibitor dasminapant were evaluated both individually and in combination with standard of care and investigational anticancer small molecules within a complex spheroid model of solid tumors. . Complex spheroids include a stromal component modeled by human endothelial cells (HUVEC) and fibroblasts modeled by human mesenchymal stem cells (MSCs). The concentration ranges selected for each drug and investigational agent were based upon clinically achievable concentrations if the clinical Cmax of the agent was known.
Compounds. The drugs and investigational agents: alrizomadlin (APG-115; NSC831270), pelcitoclax (APG-1252; NSC835773), dasminapant (APG-1387;NSC834197), TAK-243 (NSC785004), copanlisib (NSC809693), olaparib (NSC753686), talazoparib (NSC767125), cobimetinib (NSC 768068), eltanexor (KPT-8602, NSC 794443), abemaciclib (NSC 768073), sotorasib (NSC818433), adagrasib (NSC 831453), MRTX-1133 (NSC 836407), Iadademestat (ORY1001, NSC 806812), and RMC-4630 (NSC839698), were obtained from the NCI Developmental Therapeutics Program Chemical Repository. The FDA-approved anticancer drug set is available from the Developmental Therapeutics Program at https://dtp.cancer.gov/organization/dscb/obtaining/available plates.htm. […] The stock solutions were prepared in dimethyl sulfoxide (DMSO, Sigma-Aldrich, St. Louis, MO, cat. D2650) at 800-fold the tested concentration and stored at -70 degrees C prior to their use. All drugs and investigational agents were tested over a range starting from a high concentration at or near the clinical Cmax and decreasing in half-log increments. If the clinical Cmax for an agent had not been determined, the highest concentration tested was 10 microM.
The patient-derived cancer (PDC) cell lines include five colon adenocarcinomas: 186277-243-T-J2-PDC, 616215-338-R-J1-PDC, 439559-082-T-J2-PDC, 463943-066-T-J2-PDC, and 519858-162-T-J1-PDC; three pancreatic carcinomas: 323965-272-R-J2-PDC, 521955-158-R6-J3-PDC, and 521955-158-R2-J5-PDC; two uterine sarcomas: 327498-152-R-J2-PDC and 993429-296-R-J1-PDC; two rhabdomyosarcomas: 755483-174-R-J1-PDC and 772245-204-R-J1-PDC; two soft tissue sarcomas: 126254-015-R-J1-PDC and 494315-158-R-J1-PDC; two malignant fibrous histiocytomas: 317291-083-R-J1-PDC and 596521-263-R-J1-PDC; two breast carcinomas: 171881-019-R-J1-PDC and 885512-296-R-J2-PDC; and one ovarian carcinoma: 6556581-035-R-J-PDC were obtained from the NCI PDMR, (https://pdmr.cancer.gov). The established cell lines HSSY-2 synovial sarcoma (RRID:CVCL 8719), SYO-1 synovial sarcoma (RRID:CVCL_7146), MPNST malignant peripheral neural sheath tumor were obtained from the Sloan Kettering Institute. The following established cell lines were purchased from the American Type Culture Collection (ATCC, Manassas, VA), Sor the received from the NCI repository:, PANC-1 pancreatic carcinoma (CRL-1469, RRID:CVCL_0480), OVCAR-5 ovarian carcinoma (RRID:CVCL_1628), OVCAR-8 ovarian carcinoma (RRID:CVCL_1629), , MCF-7 breast carcinoma (CRL-12584, RRID:CVCL_0031), MDA-MB-231 breast carcinoma (CRL-12532, RRID:CVCL_0062), NCI-H1876 small cell lung carcinoma (CRL-5902, RRID:CVCL_1503), NCI-H510A small cell lung carcinoma (HTB-184, RRID:CVCL_1565), NCI-H1417 (CRL-5869, RRID:CVCL_1469), and NCI-H196 small cell lung carcinoma (CRL-5823, RRID:CVCL_1509). Dr. Peter Houghton (Greehey Children's Cancer Research Institute, University of Texas Health Science Center, San Antonio, TX) provided Rh-18 rhabdomyosarcoma (RRID:CVCL_1659). Pooled donor human umbilical vein endothelial cells (HUVEC, Lonza, cat. CC-2519) and human mesenchymal stem cells (hMSC, Lonza, cat. PT-2501) were purchased from Lonza (Walkersville, MD).
Cell Culture. […]

## CNC(C)C(=O)NC1CN(S(=O)(=O)c2cccc(S(=O)(=O)N3CCC4CCC(C(=O)NC(c5ccccc5)c5ccccc5)N4C(=O)C(NC(=O)C(C)NC)C3)c2)CCC2CCC(C(=O)NC(c3ccccc3)c3ccccc3)N2C1=O (stereo not given) + CCN1C(C(=O)NC23CCC(C(=O)O)(CC2)CC3)C(c2cccc(Cl)c2F)C2(C(=O)Nc3cc(Cl)ccc32)C12CCCCC2
Second compound 0.03 µM
  IC50: > 1000 nM
Second compound 0.0949 µM
  IC50: > 1000 nM
Second compound 0.3 µM
  IC50: > 1000 nM
Second compound 0.949 µM
  IC50: > 1000 nM
Second compound 3 µM
  IC50: > 1000 nM
Second compound 0.03 µM, first compound 0.00316 µM
  viability, T/C: 121%
Second compound 0.03 µM, first compound 0.01 µM
  viability, T/C: 107%
Second compound 0.03 µM, first compound 0.0316 µM
  viability, T/C: 112%
Second compound 0.03 µM, first compound 0.1 µM
  viability, T/C: 111%
Second compound 0.03 µM, first compound 0.316 µM
  viability, T/C: 99.8%
Second compound 0.03 µM, first compound 1 µM
  viability, T/C: 109%
Second compound 0.0949 µM, first compound 0.00316 µM
  viability, T/C: 101%
Second compound 0.0949 µM, first compound 0.01 µM
  viability, T/C: 94.8%
Second compound 0.0949 µM, first compound 0.0316 µM
  viability, T/C: 108%
Second compound 0.0949 µM, first compound 0.1 µM
  viability, T/C: 91.5%
Second compound 0.0949 µM, first compound 0.316 µM
  viability, T/C: 101%
Second compound 0.0949 µM, first compound 1 µM
  viability, T/C: 115%
Second compound 0.3 µM, first compound 0.00316 µM
  viability, T/C: 116%
Second compound 0.3 µM, first compound 0.01 µM
  viability, T/C: 118%
Second compound 0.3 µM, first compound 0.0316 µM
  viability, T/C: 94.6%
Second compound 0.3 µM, first compound 0.1 µM
  viability, T/C: 104%
Second compound 0.3 µM, first compound 0.316 µM
  viability, T/C: 105%
Second compound 0.3 µM, first compound 1 µM
  viability, T/C: 100%
Second compound 0.949 µM, first compound 0.00316 µM
  viability, T/C: 97%
Second compound 0.949 µM, first compound 0.01 µM
  viability, T/C: 98.9%
Second compound 0.949 µM, first compound 0.0316 µM
  viability, T/C: 93.4%
Second compound 0.949 µM, first compound 0.1 µM
  viability, T/C: 97.5%
Second compound 0.949 µM, first compound 0.316 µM
  viability, T/C: 87.1%
Second compound 0.949 µM, first compound 1 µM
  viability, T/C: 91.1%
Second compound 3 µM, first compound 0.00316 µM
  viability, T/C: 97.2%
Second compound 3 µM, first compound 0.01 µM
  viability, T/C: 98.8%
Second compound 3 µM, first compound 0.0316 µM
  viability, T/C: 91.8%
Second compound 3 µM, first compound 0.1 µM
  viability, T/C: 90.8%
Second compound 3 µM, first compound 0.316 µM
  viability, T/C: 84.2%
Second compound 3 µM, first compound 1 µM
  viability, T/C: 99.4%

## COc1c(OCCCN2CCOCC2)ccc2c3n(c(=NC(=O)c4cnc(N)nc4)nc12)CCN3 + Cc1c(S(C)(=O)=O)c(-c2cc(F)cc(N3CCN(c4ccc(NS(=O)(=O)c5ccc(NC(CCN6CCC(C(=O)OCCCP(=O)(O)O)CC6)CSc6ccccc6)c(S(=O)(=O)C(F)(F)F)c5)cc4)CC3)c2)c(-c2ccc(Cl)cc2)n1C(C)C
Second compound 0.1 µM
  IC50: 87.7 nM
Second compound 0.316 µM
  IC50: < 3.16 nM
Second compound 1 µM
  IC50: < 3.16 nM
Second compound 3.16 µM
  IC50: < 3.16 nM
Second compound 10 µM
  IC50: < 3.16 nM
Second compound 0.1 µM, first compound 0.00316 µM
  viability, T/C: 79.6%
Second compound 0.1 µM, first compound 0.01 µM
  viability, T/C: 80.2%
Second compound 0.1 µM, first compound 0.0316 µM
  viability, T/C: 60.5%
Second compound 0.1 µM, first compound 0.1 µM
  viability, T/C: 45.7%
Second compound 0.1 µM, first compound 0.316 µM
  viability, T/C: 34.8%
Second compound 0.1 µM, first compound 1 µM
  viability, T/C: 14.1%
Second compound 0.316 µM, first compound 0.00316 µM
  viability, T/C: 46.7%
Second compound 0.316 µM, first compound 0.01 µM
  viability, T/C: 43%
Second compound 0.316 µM, first compound 0.0316 µM
  viability, T/C: 24.1%
Second compound 0.316 µM, first compound 0.1 µM
  viability, T/C: 12.7%
Second compound 0.316 µM, first compound 0.316 µM
  viability, T/C: 10.1%
Second compound 0.316 µM, first compound 1 µM
  viability, T/C: 3.24%
Second compound 1 µM, first compound 0.00316 µM
  viability, T/C: 14.9%
Second compound 1 µM, first compound 0.01 µM
  viability, T/C: 9.99%
Second compound 1 µM, first compound 0.0316 µM
  viability, T/C: 8.47%
Second compound 1 µM, first compound 0.1 µM
  viability, T/C: 2.77%
Second compound 1 µM, first compound 0.316 µM
  viability, T/C: 1.93%
Second compound 1 µM, first compound 1 µM
  viability, T/C: 0.85%
Second compound 3.16 µM, first compound 0.00316 µM
  viability, T/C: 2.73%
Second compound 3.16 µM, first compound 0.01 µM
  viability, T/C: 2.65%
Second compound 3.16 µM, first compound 0.0316 µM
  viability, T/C: 1.29%
Second compound 3.16 µM, first compound 0.1 µM
  viability, T/C: 0.44%
Second compound 3.16 µM, first compound 0.316 µM
  viability, T/C: 0.22%
Second compound 3.16 µM, first compound 1 µM
  viability, T/C: 0.21%
Second compound 10 µM, first compound 0.00316 µM
  viability, T/C: 2.03%
Second compound 10 µM, first compound 0.01 µM
  viability, T/C: 1.93%
Second compound 10 µM, first compound 0.0316 µM
  viability, T/C: 1.06%
Second compound 10 µM, first compound 0.1 µM
  viability, T/C: 0.31%
Second compound 10 µM, first compound 0.316 µM
  viability, T/C: 0.21%
Second compound 10 µM, first compound 1 µM
  viability, T/C: 0.23%

Reference: PubChem BioAssay AID1963440 (Molecular Pharmacology Branch, DTP, NCI, 2024)
